Measurements taken from PMC8063026 (Frontiers in Pharmacology, 2021).
Where two headings read alike, the source gives them in different places.

Tests used:
[1] = LC-MS/MS detection of mephedrone metabolites in a human urine sample; assay type: in vivo; design: key to Detected in urine samples: detected (+); not detected (−); details: for detection in human urine sample: achiral LC-MS/MS, after enzymatic workup; for Detected in urine samples: human urine, mephedrone user, only syn- and anti-configurations could be separated
Excerpt: The biological specimen, human urine, was provided by the Department of Chemical Analytics, Seibersdorf Laboratories GmbH. The sample was taken from a subject postmortem in a fatal case of drug overdose. […] Given this fact, we assumed that also the metabolites would be detectable in sufficient quantity. To evaluate the presence of any metabolites whatsoever in the urine sample we designed an achiral separation protocol for liquid chromatography and we coupled it with triple quadrupole mass spectrometer. The advantage of LC-MS/MS system is that even if two substances have the same retention time, they can still be differentiated by their fragmentation pattern. More in details, the samples for urine analysis were analyzed using a CTC HTS PAL autosampler (CTC Analytics) and a Thermo Surveyor LC system (Thermo) interfaced to a TSQ Quantum Discovery Max triple quadrupole mass spectrometer (Thermo). A C18 security guard cartridge (4 × 2 mm) (Phenomenex) was used for sample clean-up and the analytical HPLC column was a Kinetex 1.7 μm C18 100Å 150 × 2.1 mm (Phenomenex) and Cortecs T3, 2.7 μm C18 120Å 100 × 2.1 mm (Waters). Column selection was performed by a Maylab Mistraswitch column selector (Maylab Analytical Instruments). The solvents were 0.2% formic acid in water (A) and acetonitrile (B). The temperature of the analytical column was maintained at 40°C. The mass spectrometer was equipped with heated electrospray ionization (ESI) source and was operated in positive ionization mode with a spray voltage set at 4500V. The capillary temperature was adjusted to 320°C. The sheath and auxiliary gas (nitrogen) flow rate was 25 and 10 arbitrary units, respectively. The system was operated in selected […] (srm) mode with argon as the collision gas at a pressure of 1.5 mTorr. For the achiral separation, stem solutions were prepared by weighing the reference substances in volumetric flasks and filling them up with MeOH (99.9%; HPLC grade), creating average concentration of 1 mg/ml. Then dilution solutions were prepared as follows: 10 μL of stem solution was filled up to 5 ml MeOH, creating dilution […]. Samples were prepared from dilution solutions by taking out 25 μL and mixing it together with 25 μL of ISP, 50 μL ISS and filled up to 1 ml with Milli-Q water. The final sample solvent was water/MeOH 9/1. For the enzymatic workup, phosphate buffer (1 ml, 0.8M, pH = 7), β-glucuronidase/arylsulfatase (25 μL) and β-glucuronidase (25 μL) were added to the solutions. The solutions were heated at 50°C during 1 h upon which EtOAc (7 ml) was added. The solution was put into shaker for 10min, following centrifugation for 5 min. The organic phase was separated and evaporated into dryness in stream of pressurized nitrogen. The residue was taken up in 150 μL MQ-water/MeOH 9/1 + 0.4% formic acid, heated at 50°C for 5 min and subjected to LC-MS analysis.
If on one hand the synthesis of putative metabolites allows the establishment of structure activity relationships, on the other hand, it provides pure material to evaluate their presence in human urine samples and determine their pharmacological relevance. To determine the presence of any metabolites in the urine sample, we have designed an achiral separation protocol and coupled the liquid chromatography with triple quadrupole mass spectrometer (LCMS/MS). With the LCMS/MS system two substances with the same retention time, can still be differentiated by their fragmentation pattern. Since metabolites carrying a primary alcohol functionality can form glucuronide and sulfate conjugates, we performed an enzymatic workup of the urine sample in order to cleave them. Apart from the parental drug, we detected 4-OH-MMC and 4-MC (nor-meph) which we have both already identified in our previous publication ([Mayer et al., 2019]), and the two previously uncharacterized metabolites 4-COOH-MC and dihydro-4-MC (Figure 6). […]

human NET = target: T1, human NET (Homo sapiens, UniProt P23975); assay: cell-based
T1 construct: expressed in transfected cells
T1 sequence (P23975 whole entry): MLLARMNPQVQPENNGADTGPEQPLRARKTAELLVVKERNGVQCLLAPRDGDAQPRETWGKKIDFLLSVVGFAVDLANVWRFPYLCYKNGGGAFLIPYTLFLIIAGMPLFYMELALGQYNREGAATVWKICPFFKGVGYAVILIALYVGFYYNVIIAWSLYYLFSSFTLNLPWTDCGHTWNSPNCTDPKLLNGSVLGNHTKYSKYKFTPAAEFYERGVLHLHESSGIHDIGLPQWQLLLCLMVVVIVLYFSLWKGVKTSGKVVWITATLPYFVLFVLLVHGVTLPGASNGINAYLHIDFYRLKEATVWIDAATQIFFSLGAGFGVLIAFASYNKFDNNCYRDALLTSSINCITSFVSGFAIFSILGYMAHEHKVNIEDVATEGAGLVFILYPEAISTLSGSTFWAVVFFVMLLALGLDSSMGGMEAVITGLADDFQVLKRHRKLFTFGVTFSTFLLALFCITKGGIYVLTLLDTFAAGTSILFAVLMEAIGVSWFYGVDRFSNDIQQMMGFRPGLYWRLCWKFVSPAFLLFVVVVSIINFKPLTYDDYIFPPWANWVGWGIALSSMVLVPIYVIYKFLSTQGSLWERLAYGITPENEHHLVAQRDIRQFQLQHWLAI

DAT = target: T2, DAT (Homo sapiens, UniProt Q01959); assay: cell-based
T2 construct: expressed in transfected cells
T2 sequence (Q01959 whole entry): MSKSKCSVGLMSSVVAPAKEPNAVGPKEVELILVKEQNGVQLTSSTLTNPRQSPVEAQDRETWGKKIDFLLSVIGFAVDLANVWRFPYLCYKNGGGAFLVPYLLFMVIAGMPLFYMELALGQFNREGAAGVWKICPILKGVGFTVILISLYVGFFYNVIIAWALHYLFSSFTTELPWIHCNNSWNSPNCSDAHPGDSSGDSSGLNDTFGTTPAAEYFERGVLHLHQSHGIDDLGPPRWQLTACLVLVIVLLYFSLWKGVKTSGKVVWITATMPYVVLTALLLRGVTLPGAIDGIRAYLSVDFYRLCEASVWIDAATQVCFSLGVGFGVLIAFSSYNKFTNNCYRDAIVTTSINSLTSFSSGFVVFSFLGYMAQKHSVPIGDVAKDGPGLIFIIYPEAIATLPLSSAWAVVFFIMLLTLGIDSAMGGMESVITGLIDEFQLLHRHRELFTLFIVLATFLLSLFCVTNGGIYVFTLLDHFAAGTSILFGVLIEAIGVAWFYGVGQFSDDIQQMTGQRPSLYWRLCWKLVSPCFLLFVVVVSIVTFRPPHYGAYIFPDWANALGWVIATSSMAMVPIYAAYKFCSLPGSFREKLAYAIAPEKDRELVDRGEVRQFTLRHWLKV

SERT = target: T3, SERT (Homo sapiens, UniProt P31645); assay: Uptake-inhibition of [3H]5-HT in HEK293 cells stably expressing human SERT; assay type: cell-based
T3 construct: expressed in transfected cells
T3 sequence (P31645 whole entry): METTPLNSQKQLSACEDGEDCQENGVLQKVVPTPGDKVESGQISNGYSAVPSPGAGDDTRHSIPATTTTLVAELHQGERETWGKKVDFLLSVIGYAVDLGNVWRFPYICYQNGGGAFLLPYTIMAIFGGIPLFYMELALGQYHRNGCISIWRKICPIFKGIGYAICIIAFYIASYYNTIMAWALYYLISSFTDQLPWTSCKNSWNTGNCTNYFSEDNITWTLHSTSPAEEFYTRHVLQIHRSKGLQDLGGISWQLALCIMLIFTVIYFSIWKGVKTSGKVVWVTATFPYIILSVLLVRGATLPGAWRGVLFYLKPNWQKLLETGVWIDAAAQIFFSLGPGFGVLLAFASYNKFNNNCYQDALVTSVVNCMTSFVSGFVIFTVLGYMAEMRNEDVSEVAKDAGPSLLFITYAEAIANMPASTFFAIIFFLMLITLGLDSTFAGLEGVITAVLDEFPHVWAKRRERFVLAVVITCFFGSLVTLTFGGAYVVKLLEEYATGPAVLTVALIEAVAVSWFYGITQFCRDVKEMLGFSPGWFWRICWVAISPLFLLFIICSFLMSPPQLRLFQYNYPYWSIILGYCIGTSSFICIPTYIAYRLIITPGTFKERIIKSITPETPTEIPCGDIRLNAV

[2] = mean (95% confidence interval), non-linear regression, read-out: IC50 (µM) NET
[3] = QSAR data matrix, from IC50 DAT, read-out: pIC50 DAT (converted)
[4] = mean (95% confidence interval), non-linear regression, read-out: IC50 (µM) DAT
[5] = QSAR data matrix, unit inferred, read-out: IC50 SERT
[6] = mean (95% confidence interval), non-linear regression, read-out: IC50 (µM) SERT

Row | SMILES | detection in human urine sample [1] | Selectivity ratio NET/DAT (human NET) | IC50 (human NET; [2]) | Selectivity ratio DAT/SERT (DAT) | IC50 (DAT; [3]) | IC50 (DAT; [4]) | IC50 (SERT; [5]) | IC50 (SERT; [6]) | Detected in urine samples [1] | IC50 (human NET; QSAR data matrix, from IC50 NET, read-out: pIC50 NET (converted))
1 | CNC(C)C(=O)c1ccc(CO)cc1.Cl (centres unmarked) [4-OH-MMC, 4-OH-mephedrone, reference compound] | detected |  |  |  |  |  |  |  |  | 
2 | C[C@H](N)[C@H](O)c1ccc(CO)cc1 [Dihydro-(R,S)-4-OH-MC] |  | 1.60 | 62 µM | 3.86 | 100 µM | 99.1 µM | 383 µM | 383 µM | − | 
3 | CN[C@@H](C)[C@H](O)c1ccc(CO)cc1 [Dihydro-(R,S)-4-OH-MMC] |  | 1.57 | 53.9 µM | 5.87 | 85.1 µM | 84.5 µM | 496 µM | 496 µM | − | 
4 | C[C@@H](N)[C@@H](O)c1ccc(CO)cc1 [Dihydro-(S,R)-4-OH-MC] |  | 1.09 | 83.4 µM | 12.68 | 91.2 µM | 91.2 µM |  | 1160 µM | − | 
5 | CN[C@H](C)[C@@H](O)c1ccc(CO)cc1 [Dihydro-(S,R)-4-OH-MMC] |  | 1.55 |  | 40.99 | 77.6 µM | 77 µM |  | 3160 µM | − | 50.1 µM
6 | C[C@H](N)[C@@H](O)c1ccc(CO)cc1 [Dihydro-(S,S)-4-OH-MC] |  | 4.71 | 12.6 µM | 9.92 | 58.9 µM | 59.2 µM |  | 588 µM | − | 
7 | CN[C@@H](C)[C@@H](O)c1ccc(CO)cc1 [Dihydro-(S,S)-4-OH-MMC] |  | 0.55 | 291 µM | 11.49 | 162 µM | 161 µM |  | 1850 µM | − | 
8 | Cc1ccc(C(O)C(C)N)cc1 (centres unmarked) [dihydro-4-MC, dihydro-4-nor-mephedrone] | detected |  |  |  |  |  |  |  |  | 
9 | CNC(C)C(O)c1ccc(CO)cc1 (centres unmarked) [dihydro-4-OH-MMC] | not found |  |  |  |  |  |  |  |  | 
